The source of these data is patent US4791113A, “Mitomycin derivatives as antileukemia agents” (Kyowa Hakko Kogyo Kabushiki Kaisha, priority 1986, dated 1988).

Broadly, the IC50 is the concentration at which inhibition is half-maximal. As usually defined, the LD50 is the dose expected to kill half of the subjects tested. Low readings indicate greater toxicity, high ones lower toxicity.

Converted amounts (≈) assume the structure as drawn. Read-outs that look alike come from different tables or passages of the source.

In one data set the test system is Hela S3 cultured cells. Put plainly: Effects upon Hela S3 cultured cells. The conditions noted are these: Homo sapiens. The data set is classed as cell-based. On the procedure: Table 3 indicates the effects of typical Compounds (I) against Hela S3 culture cells. In this table, IC50 denotes the concentration of the test compound capable of reducing the number of cells to 50% the number of untreated cells.
Cultured cells of Hela S3 were added to a MEM medium containing 10% (V/V) of bovine fetal serum and […] of glutamine to obtain a cell suspension of 3×10^4 cells/ml. The cell suspension was poured into each well (1 ml/well) of a 24 well-multiplate for culturing at 37° C. in an incubator containing carbon dioxide (5%) and air (95%). After 24 hours, samples were dissolved or suspended in PBS, ethanol or dimethylsulfoxide and added to the medium at different concentrations, followed by culturing at 37° C. for 72 hours in the same incubator. An aspirator was used to collect the medium from each well. The surface of each medium was washed by adding PBS (1 ml) gently, and then PBS was sucked out. PBS containing trypsin (0.05%) and EDTA (0.02%) was poured into each well. After pipetting, the number of cells in each suspension was counted by the use of a microcell counter (commercial product of Toa Iyo Denshi K.K., Japan). By reference to a curve showing the concentration vs. the number of cells, the IC50 (concentration of sample capable of reducing the number of cells to 50% of the number of control untreated cells) was measured.

Data set [1] is described as follows: in vivo. Conditions: mouse, ip, single abdominal administration, ddy mice, 14 days, Behrens-Korber's method. The text has this: (§1) In this table, C.I. denotes chemotherapeutic index, calculated as C.I.=(LD50)/(ED50), wherein LD50 denotes the value of acute toxicity, and ED50 denotes the dose of a sample which is capable of reducing the volume of Sarcoma 180 solid tumour to 50% of the corresponding volume of the solid tumour of untreated group.
(§2) The test compound was abdominally administered once to ddy mice, each group consisting of 5 animals.

The subject of a further data set is Sarcoma 180 solid tumour. Format: in vivo, ddy mouse. The conditions noted are these: C.I.=(LD50)/(ED50), ED50 = dose at T/C=0.5, i.v. (tail vein), 7 days.
Source text: as §1, §2
(§3) 5×10^6 cells of Sarcoma 180 solid tumour were abdominally implanted into a ddy mouse. 7 days after this, the cells were collected from the ascites fluid. The cells were washed once with physiological saline under sterile conditions and suspended in physiological saline to obtain a cell suspension containing 5×10^7 cells/ml of which 0.1 ml was implanted into a ddy male mouse (body weight 20±2 g) under the skin of the right armpit. The test compound was dissolved in physiological saline or the same solution containing Tween 80. 24 hours after implantation of the tumour cells, 0.1-0.2 ml of the solution containing the test compound was administered to the tail vein of each animal in the test group consisting of 5 animals. 7 days after the implantation, the major axis (a) and minor axis (b) of the tumour were measured to calculate the volume of the tumour as "a"×"b^2 "/2. The antitumour effect was indicated by T/C which is the ratio of the tumour volume in the test animals to the corresponding volume of the control (untreated) animals.
(§4) T/C ratios and the dose were respectively plotted on the ordinate using an arithmetic scale and on the abscissa using a logarithmic scale, the relationship between the dosage and the T/C ratio being converted to a straight line by the least squares method. From the straight tropic line thus-obtained, the dosage corresponding to a T/C=0.5 viz. ED50 was determined.

The nature of data set [2]: in vivo. The arrangement: species or system mice (ddy strain). Conditions: mouse, ip, ratio of dose reducing peripheral leucocytes to 4000 (per mm^3; i.p., 4 days) to ED50 (Sarcoma 180), read-out: (WBC4000)/(ED50).
Source text: as §1, §3, §4
Sarcoma 180 solid tumour cells (5×10^6) were subcutaneously implanted under the skin of the right armpit of each mouse (body weight 20±2 g) of a group consisting of 5 male mice (ddy strain). 24 hours after this, a test compound was intraperitoneally administered to each animal. 4 days later, blood (0.02 ml) was collected from the suborbital plexus vein of each tumour-carrying animal. The collected sample of blood was dispersed in 9.98 ml of Cellkit Seven solution. One drop of saponin solution was added to the sample to dissolve erythrocytes and then a microcell counter was used to measure the number of leucocytes. On graph paper, the number of leucocytes was plotted on the ordinate using an arithmetic scale, and the dosage was plotted on the abscissa using a logarithmic scale to show the relationship of the dosage to the number of peripheral leucocytes, from which the value of WBC4000 viz. a value capable of giving 4000 peripheral leucocytes per mm^3 (about half of the corresponding value in normal mice) was obtained.

Regarding `CO[C@@]12[C@H](COC(N)=O)c3c(O)c(N=O)c(C)c(OC(C)=O)c3N1C[C@H]1[C@@H]2N1C(C)=O` [Example 11, [1aS-(1aα, 8β, 8aα, 8bα)]-1-acetyl-4-acetyloxy-8-{[(aminocarbonyl)oxy]methyl}-1,1a,2,8,8a,8b-hexahydro-7-hydroxy-8a-methoxy-5-methyl-6-nitroso-azirino[2',3':3,4]pyrrolo[1,2-a]indole], the IC50 with Hela S3 cultured cells (concentration reducing number of Hela S3 cells to 50% of untreated, 72 hours at 37° C., read-out: IC50) was 20 ng/mL (≈ 0.046 µM). The molecule further gave an LD50 at 336 h in the data set “in vivo [1]” of 38 mg/kg. In addition, the “C.I. (chemotherapeutic index)” value in the data set with Sarcoma 180 solid tumour worked out at 2.0. For the same molecule, the selectivity ratio in the data set “in vivo [2]” was determined as 0.9.

As for `COc1c(C)c(N=O)c(O)c2c1N1C[C@H]3[C@H](N3C)[C@]1(O)[C@H]2COC(N)=O` (stereo partly drawn) [Example 10], in the data set with Hela S3 cultured cells (HeLa S3, 72 h), the IC50 is 4 ng/mL (≈ 0.011 µM). Besides, the LD50 at 336 h in “in vivo [1]” was greater than 100 mg/kg. The “C.I. (chemotherapeutic index)” value in the data set with Sarcoma 180 solid tumour was greater than 0.56. Moreover, the selectivity ratio in “in vivo [2]” was greater than 0.56.

Consider `COc1c(C)c(N=O)c(O)c2c1N1C[C@@H]3N[C@@H]3[C@]1(OC)[C@@H]2COC(N)=O` [Example 6], for which half-maximal inhibition in the data set with Hela S3 cultured cells (HeLa S3, 72 h) (IC50) was put at 5 ng/mL (≈ 0.0137 µM). In addition, the 50% lethal dose (LD50) at 336 h in “in vivo [1]” is 75 mg/kg. The “C.I. (chemotherapeutic index)” value in the data set with Sarcoma 180 solid tumour is listed as 5.6. Moreover, the selectivity ratio in “in vivo [2]” worked out at 2.7.
